Experimental data reported in US20250326755A1, “CYCLIC QUATERNARY AMMONIUM SALT COMPOUND, AND PREPARATION METHOD THEREFOR AND USE THEREOF” (YICHANG HUMANWELL PHARMACEUTICAL CO., LTD., priority 2022, published 2025).
Like-named read-outs stand apart in the source and are kept apart here.

Tests used:
sciatic nerve of the rat = assay type: in vivo, SD rats
Protocol: The experimental methods described in the following test examples were standard procedures unless otherwise specified. All experimental animals used in the following test examples were SD rats purchased from Hunan Slac Jingda Experimental Animal Co., Ltd. Other test materials, unless stated otherwise, were purchased from conventional biochemical reagent suppliers.
The compounds listed in Table 1 and levobupivacaine hydrochloride (positive control) were administered to three groups of rats fully acclimated to the experimental environment, with one rat per group.
Solution Preparation: 2 mg/ml Levobupivacaine Hydrochloride Injection: 2.670 ml of 7.5 mg/ml levobupivacaine hydrochloride injection (Batch No. 92S0702) was pipetted into a 10 ml volumetric flask. 0.9% NaCl solution was added until the meniscus was level with the calibration line, and the solution was inverted and mixed thoroughly, to prepare 2 mg/ml levobupivacaine hydrochloride injection. 2 mg/ml Example Compound Solution: 6.6 mg of the example compound was accurately weighed and dissolved in 3.3 ml of 0.9% NaCl solution to prepare a 2 mg/ml example compound solution.
Both the positive control and the example compound were administered to each rat at 2 mg/ml, with an administration volume of 5 ml/kg, in a single injection near the sciatic nerve of the rat. After the administration, the rat was placed on a preheated hot plate (50±0.1° C.) of an intelligent hot plate instrument. […] The maximum thermal latency was controlled at 60 s. […] Any urine or feces on the hot plate was promptly cleaned and dried before subsequent tests.
Thermal latency results were expressed as the maximum proportional effect (MPE), calculated using the following formula.
Wherein: B represented the basal thermal latency of the rats; P was the maximum thermal latency C was the observed thermal latency at the detection time point.
Measurements were considered invalid if the MPE was less than 50% of the maximum proportional effect. If two consecutive measurements yielded an MPE of less than […], the experiment was terminated.

[1] = system: rat subcutaneous infiltration model; assay: Local anesthetic effect by subcutaneous infiltration, Von Frey needle stimulation of back skin; assay type: in vivo, SD rats; settings: 1 mg/ml, 0.5 mL subcutaneous injection on the back, 10 rats
Protocol: After shaving and disinfecting the backs of SD rats (half male and half female) weighing 190-210 grams, a circle with a diameter of approximately 1.5 cm was drawn on one side of the exposed skin. 0.5 mL of a solution containing the drug was subcutaneously injected into the skin in the center. The solution, using physiological saline as the solvent, contained either 2 mg/ml bupivacaine hydrochloride or 1 mg/ml concentration of the compounds listed in Table 2 of the present application. Each group consisted of 10 rats. A Von Frey fiber with a 100-gram force was attached to a needle for local skin stimulation. One minute after drug administration, the rat's response to the stimulus was measured. Testing was conducted at 6 different points within the marked area of drug administration. Skin contraction, avoidance, and other behaviors following stimulation were observed and recorded. Three points in the center and three points around the circle were stimulated, and the number of skin contraction and avoidance behaviors was recorded as N6. […] Each compound was tested on 10 rats.

[2] = 2 mg/ml, 5 ml/kg, single injection near the sciatic nerve of the rat, hot plate 50±0.1° C.

With `CCCC[N+]1(CCOCCOc2ccccc2)CCCC[C@H]1C(=O)Nc1c(C)cccc1C` (stereo partly drawn) [Comparative Example 1, (2S)-1-Butyl-2-((2,6-dimethylphenyl)carbamoyl)-1-(2-(2-phenoxyethoxy)ethyl)piperidine bromide, reference compound] the “the rat died, time after administration” value (sciatic nerve of the rat; 2 mg/ml, 5 ml/kg, single injection near the sciatic nerve) was 1 (the rat died 4 h, the Duration/h (sciatic nerve of the rat; rat, in vivo) was 1 (the rat died 4 h and the “Onset Time/min” value (sciatic nerve of the rat; rat, in vivo) was 2 min.

With `CCCC[N+]1(CCCCNc2ccccc2)CCCC[C@H]1C(=O)Nc1c(C)cccc1C` (stereo partly drawn) [Compound of Example 1, (2S)-1-Butyl-2-((2,6-dimethylphenyl)carbamoyl)-1-(4-(phenylamino)butyl)piperidine bromide] the Duration/h [1] was 48 to 72 h, the “Onset Time/min” value [1] was 1 min and the Duration/h (sciatic nerve of the rat; rat, in vivo) was 24 to 48 h. The “Onset Time/min” value (sciatic nerve of the rat; rat, in vivo) was 1 min.

With `CCCC[N+]1(CCCCNc2ccc(C)cc2)CCCC[C@H]1C(=O)Nc1c(C)cccc1C` (stereo partly drawn) [Compound of Example 2, (2S)-1-Butyl-2-((2,6-dimethylphenyl)carbamoyl)-1-(4-(p-toluidino)butyl)piperidine bromide] the Duration/h [1] was 72 to 96 h, the “Onset Time/min” value [1] was 1 min and the Duration/h (sciatic nerve of the rat; [2]) was 48 to 72 h. The “Onset Time/min” value (sciatic nerve of the rat; [2]) was 1 min.

For `CCCC[N+]1(CCCCOc2ccccc2)CCCC[C@H]1C(=O)Nc1c(C)cccc1C` (stereo partly drawn) [Compound of Example 4, (2S)-1-Butyl-2-((2,6-dimethylphenyl)carbamoyl)-1-(4-(phenoxy)butyl)piperidine bromide], the Duration/h [1] was 72 to 96 h, the “Onset Time/min” value [1] was 1 min and the Duration/h (sciatic nerve of the rat; rat, in vivo) was 48 to 72 h. For the same molecule, the “Onset Time/min” value (sciatic nerve of the rat; rat, in vivo) was 1 min.

In the case of `CCCC[N+]1(CCCCOc2cc(F)ccc2N)CCCC[C@H]1C(=O)Nc1c(C)cccc1C` (stereo partly drawn) [Compound of Example 6, (2S)-1-(4-(2-amino-5-fluorophenoxy)butyl)-1-butyl-2-((2,6-dimethylphenyl)carbamoyl) piperidine bromide], the Duration/h [1] is reported as 48 to 72 h, the “Onset Time/min” value [1] is reported as 1 min and the Duration/h (sciatic nerve of the rat; [2]) is reported as 24 to 48 h. The “Onset Time/min” value (sciatic nerve of the rat; [2]) was 1 min.

For `CCCC[N+]1(CCCCCNc2ccccc2)CCCC[C@H]1C(=O)Nc1c(C)cccc1C` (stereo partly drawn) [Compound of Example 7, (2S)-1-Butyl-2-((2,6-dimethylphenyl)carbamoyl)-1-(5-(phenylamino)pentyl)piperidine bromide], the Duration/h [1] was 48 to 72 h, the “Onset Time/min” value [1] was 2 min and the Duration/h (sciatic nerve of the rat; rat, in vivo) was 24 to 48 h. The “Onset Time/min” value (sciatic nerve of the rat; rat, in vivo) was 2 min.

`CCCC[N+]1(CCCCCN(C)c2ccccc2)CCCC[C@H]1C(=O)Nc1c(C)cccc1C` (stereo partly drawn) [Compound of Example 8, (2S)-1-Butyl-2-((2,6-dimethylphenyl)carbamoyl)-1-(5-(methyl(phenyl)amino)pentyl)piperidine bromide] was tested, and the Duration/h [1] was 48 to 72 h, the “Onset Time/min” value [1] was 1 min and the Duration/h (sciatic nerve of the rat; [2]) was 24 to 48 h. The “Onset Time/min” value (sciatic nerve of the rat; [2]) was 1 min.

`CCCC[N+]1(CCCCCNc2ccc(C)cc2)CCCC[C@H]1C(=O)Nc1c(C)cccc1C` (stereo partly drawn) [Compound of Example 9, (2S)-1-Butyl-2-((2,6-dimethylphenyl)carbamoyl)-1-(5-(p-toluylamino)pentyl)piperidine bromide] was tested, and the Duration/h [1] was 48 to 72 h, the “Onset Time/min” value [1] was 1 min and the Duration/h (sciatic nerve of the rat; [2]) was 24 to 48 h. The “Onset Time/min” value (sciatic nerve of the rat; [2]) was 1 min.

For `CCCC[N+]1(CCCCCNc2ccc(F)cc2)CCCC[C@H]1C(=O)Nc1c(C)cccc1C` (stereo partly drawn) [Compound of Example 10, (2S)-1-Butyl-2-((2,6-dimethylphenyl)carbamoyl)-1-(5-(p-fluorophenylamino)pentyl)piperidine bromide], the Duration/h [1] was 48 to 72 h, the “Onset Time/min” value [1] was 2 min and the “Onset Time/min” value (sciatic nerve of the rat; [2]) was 2 min.

In the case of `CCCC[N+]1(CCCCCN2CCn3ccnc3C2)CCCC[C@H]1C(=O)Nc1c(C)cccc1C` (stereo partly drawn) [Compound of Example 11, (2S)-1-Butyl-1-(5-(5,6-dihydroimidazo[1,2-a]pyrazin-7(8H)-yl)pentyl)-2-((2,6-dimethylphenyl)carbamoyl)piperidine bromide], the Duration/h [1] is reported as 48 to 72 h, the “Onset Time/min” value [1] is reported as 1 min and the Duration/h (sciatic nerve of the rat; [2]) is reported as 24 to 48 h. The “Onset Time/min” value (sciatic nerve of the rat; [2]) was 1 min.

With `CCCC[N+]1(CCCCCN2CCn3cccc3C2C)CCCC[C@H]1C(=O)Nc1c(C)cccc1C` (stereo partly drawn) [Compound of Example 12, (2S)-1-Butyl-2-((2,6-dimethylphenyl)carbamoyl)-1-(5(1-methyl-3,4-dihydropyrrolo[1,2-a]pyrazin-2(1H)-yl)pentyl)piperidine bromide] the Duration/h [1] was 48 to 72 h, the “Onset Time/min” value [1] was 1 min and the Duration/h (sciatic nerve of the rat; [2]) was 24 to 48 h. For the same molecule, the “Onset Time/min” value (sciatic nerve of the rat; [2]) was 1 min.

With `CCCC[N+]1(CCCCNc2c(C)cc(C)cc2C)CCCC[C@H]1C(=O)Nc1c(C)cccc1C` (stereo partly drawn) [Compound of Example 19, (2S)-1-Butyl-2-((2,6-dimethylphenyl)carbamoyl)-1-(4-(symmetricaltrimethylamino)butyl)piperidine bromide] the Duration/h (sciatic nerve of the rat; [2]) was 2 to 18 h and the “Onset Time/min” value (sciatic nerve of the rat; [2]) was 2 min.

With `CCCC[N+]1(CCCCNc2ccc(Cl)cc2)CCCC[C@H]1C(=O)Nc1c(C)cccc1C` (stereo partly drawn) [Compound of Example 20, (2S)-1-Butyl-1-(4-((4-chlorophenyl)amino)butyl)-2-((2,6-dimethylphenyl)carbamoyl)piperidine bromide] the Duration/h (sciatic nerve of the rat; rat, in vivo) was 24 to 48 h and the “Onset Time/min” value (sciatic nerve of the rat; rat, in vivo) was 1 min.

For `CCCC[N+]1(CCCCNc2ccc(F)c(F)c2)CCCC[C@H]1C(=O)Nc1c(C)cccc1C.[Br-]` (stereo partly drawn) [Compound of Example 21, (2S)-1-Butyl-1-(4-((3,4-difluorophenyl)amino)butyl)-2-((2,6-dimethylphenyl)carbamoyl) piperidine bromide], the Duration/h (sciatic nerve of the rat; [2]) was 19 to 24 h and the “Onset Time/min” value (sciatic nerve of the rat; [2]) was 1 min.

With `CCCC[N+]1(CCCCOc2cc(C)ccc2C(C)C)CCCC[C@H]1C(=O)Nc1c(C)cccc1C` (stereo partly drawn) [Compound of Example 23, (2S)-1-Butyl-2-((2,6-dimethylphenyl)carbamoyl)-1-(4-(2-isopropyl-5-methylphenoxy)butyl) piperidine bromide] the Duration/h (sciatic nerve of the rat; [2]) was 48 to 72 h and the “Onset Time/min” value (sciatic nerve of the rat; [2]) was 1 min.

With `CCCC[N+]1(CCCCOc2cccc(C)c2)CCCC[C@@H]1C(=O)Nc1c(C)cccc1C.[Cl-]` (stereo partly drawn) [Compound of Example 29, (2R)-1-Butyl-2-((2,6-dimethylphenyl)carbamoyl)-1-(4-(m-tolyloxy)butyl)piperidine chloride] the Duration/h (sciatic nerve of the rat; [2]) was 24 to 30 h and the “Onset Time/min” value (sciatic nerve of the rat; [2]) was 1 min.

For `CCCC[N+]1(CCCOc2ccccc2)CCCC[C@H]1C(=O)Nc1c(C)cccc1C` (stereo partly drawn) [Compound of Example 34, (2S)-1-Butyl-2-((2,6-dimethylphenyl)carbamoyl)-1-(3-phenoxypropyl)piperidine bromide], the Duration/h (sciatic nerve of the rat; rat, in vivo) was 0 h and the “Onset Time/min” value (sciatic nerve of the rat; rat, in vivo) was “No effect observed”.

In the case of `CCCC[N+]1(CCCOc2cccc(C)c2)CCCC[C@H]1C(=O)Nc1c(C)cccc1C` (stereo partly drawn) [Compound of Example 35, (2S)-1-Butyl-2-((2,6-dimethylphenyl)carbamoyl)-1-(3-(m-tolyloxy)propyl)piperidine bromide], the Duration/h (sciatic nerve of the rat; [2]) is reported as 0 h and the “Onset Time/min” value (sciatic nerve of the rat; [2]) is reported as “No effect observed”.

In the case of `Cc1cccc(C)c1NC(=O)[C@@H]1CCCC[N+]1(CCCCOc1ccccc1)CC(C)C` (stereo partly drawn) [Compound of Example 37, (2S)-1-(Isobutylmethyl)-2-((2,6-dimethylphenyl)carbamoyl)-1-(4-phenoxybutyl)piperidine bromide], the Duration/h (sciatic nerve of the rat; rat, in vivo) is reported as 2 to 18 h and the “Onset Time/min” value (sciatic nerve of the rat; rat, in vivo) is reported as 2 min.

For `CCCC[N+]1(CCCCOc2cccc(C)c2)CCCC[C@H]1C(=O)Nc1ccccc1C` (stereo partly drawn) [Compound of Example 41, (2S)-1-Butyl-2-(o-tolylcarbamoyl)-1-(4-(m-tolyloxy)butyl)piperidinebromide], the Duration/h (sciatic nerve of the rat; rat, in vivo) was 2 to 24 h and the “Onset Time/min” value (sciatic nerve of the rat; rat, in vivo) was 2 min.

For `CCCC[N+]1(CCCCOc2cccc(C)c2)CCCC[C@H]1C(=O)Nc1c(CC)cccc1CC` (stereo partly drawn) [Compound of Example 42, (2S)-1-Butyl-2-((2,6-diethylphenyl)carbamoyl)-1-(4-(m-tolyloxy)butyl)piperidine bromide], the Duration/h (sciatic nerve of the rat; rat, in vivo) was 2 to 24 h and the “Onset Time/min” value (sciatic nerve of the rat; rat, in vivo) was 2 min.

In the case of `CCCC[N+]1(CCCCOc2ccc3cc(C(C)=O)ccc3c2)CCCC[C@H]1C(=O)Nc1c(C)cccc1C` (stereo partly drawn) [Compound of Example 43, (2S)-1-(4-((6-acetylnaphth-2-yl)oxy)butyl)-1-butyl-2-((2,6-dimethylphenyl)carbamoyl) piperidine bromide], the Duration/h (sciatic nerve of the rat; [2]) is reported as 48 to 72 h and the “Onset Time/min” value (sciatic nerve of the rat; [2]) is reported as 1 min.
